Converted amounts (≈) assume the structure as drawn. Like-named read-outs stand apart in the source and are kept apart here.
What was measured:
[1] = system: N. gonorrhoeae WHO Q; assay: Liquid broth MIC in Fastidious broth; conditions: Neisseria gonorrhoeae
[2] = system: P. aeruginosa CDC-0095; assay: microbe, parasite or virus in culture; format: cell-based; conditions: Pseudomonas aeruginosa, CDC0095, read-out: Minimum inhibitory concentration, P. aeruginosa CDC-0095
[3] = system: P. aeruginosa ATCC 27853; assay: microbe, parasite or virus in culture; format: cell-based; conditions: Pseudomonas aeruginosa, ATCC27853, read-out: Minimum inhibitory concentration, P. aeruginosa ATCC 27853
[4] = system: B. thailandensis ATCC 700388; assay: microbe, parasite or virus in culture; format: cell-based; conditions: Burkholderia thailandensis, ATCC700388, read-out: Minimum inhibitory concentration (MIC), B. thailandensis ATCC 700388
[5] = system: A. baumannii CDC-0036; assay: microbe, parasite or virus in culture; format: cell-based; conditions: Acinetobacter baumannii, CDC0036, read-out: MIC, A. baumannii CDC-0036
[6] = system: N. gonorrhoeae FA1090; assay: Liquid broth MIC in Fastidious broth; conditions: Neisseria gonorrhoeae
[7] = system: N. gonorrhoeae WHO L; assay: Liquid broth MIC in Fastidious broth; conditions: Neisseria gonorrhoeae
[8] = system: N. gonorrhoeae WHO G; assay: Liquid broth MIC in Fastidious broth; conditions: Neisseria gonorrhoeae
[9] = system: P. aeruginosa CDC-0110; assay: microbe, parasite or virus in culture; format: cell-based; conditions: Pseudomonas aeruginosa, CDC0110, read-out: Minimum inhibitory concentration, P. aeruginosa CDC-0110
[10] = system: B. humptydooensis ATCC BAA-2767; assay: microbe, parasite or virus in culture; format: cell-based; conditions: Burkholderia humptydooensis, ATCCBAA2767, read-out: Minimum inhibitory concentration (MIC), B. humptydooensis ATCC BAA-2767
[11] = system: A. baumannii CDC-0045; assay: microbe, parasite or virus in culture; format: cell-based; conditions: Acinetobacter baumannii, CDC0045, read-out: MIC, A. baumannii CDC-0045
[12] = biological target: T1, PBP3 from Pseudomonas aeruginosa (PAO1) (Pseudomonas aeruginosa, UniProt G3XD46); assay: Bocillin-FL fluorescence polarization competition binding, P. aeruginosa PBP3; conditions: Binding affinity to P. aeruginosa PBP3; fluorescence polarization competition binding assay using Bocillin-FL; read-out: P. aeruginosa PBP3 Potency
T1 construct: made in house
Method in brief: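 Purified PBP was preincubated with inhibitor (E. coli PBP3 1.5 μM, 30 min; P. aeruginosa PBP3 0.75 μM, A. baumannii PBP3 0.2 μM and PBP1a 1 μM, 15 min), then Bocillin-FL (0.1 μM; 0.05 μM for PBP1a) added and FP read up to 60 min. EC50 = 50% loss of bound probe.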

[13] = read-out: Minimum Inhibitory Concentration (MIC), N. gonorrhoeae WHO Q
[14] = FA1090, read-out: Minimum Inhibitory Concentration (MIC), N. gonorrhoeae FA 1090
[15] = read-out: Minimum Inhibitory Concentration (MIC), N. gonorrhoeae WHO L
[16] = read-out: Minimum Inhibitory Concentration (MIC), N. gonorrhoeae WHO G
[17] = read-out: Minimum Inhibitory Concentration, WHO Q
[18] = FA1090, read-out: Minimum Inhibitory Concentration, FA 1090
[19] = read-out: Minimum Inhibitory Concentration, WHO L
[20] = read-out: Minimum Inhibitory Concentration, WHO G

T1 sequence (G3XD46 whole entry): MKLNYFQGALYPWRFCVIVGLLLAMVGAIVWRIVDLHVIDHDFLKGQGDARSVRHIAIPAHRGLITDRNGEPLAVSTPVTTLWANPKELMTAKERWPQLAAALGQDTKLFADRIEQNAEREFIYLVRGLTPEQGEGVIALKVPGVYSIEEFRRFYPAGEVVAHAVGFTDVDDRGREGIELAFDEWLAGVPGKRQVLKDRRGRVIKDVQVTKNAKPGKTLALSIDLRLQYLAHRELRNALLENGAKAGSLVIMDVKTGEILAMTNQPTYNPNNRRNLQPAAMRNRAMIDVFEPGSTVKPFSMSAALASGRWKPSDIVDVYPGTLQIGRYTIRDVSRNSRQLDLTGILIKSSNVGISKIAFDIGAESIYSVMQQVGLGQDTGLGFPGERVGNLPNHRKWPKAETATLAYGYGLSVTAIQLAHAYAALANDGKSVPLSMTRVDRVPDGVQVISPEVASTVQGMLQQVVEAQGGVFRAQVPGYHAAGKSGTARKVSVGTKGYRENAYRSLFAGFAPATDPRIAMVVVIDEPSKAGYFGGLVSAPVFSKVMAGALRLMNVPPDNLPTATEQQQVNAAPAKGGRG

SMILES	MIC [1, 13]	MIC [2]	MIC [3]	MIC [4]	MIC [5]	MIC [6, 14]	MIC [7, 15]	MIC [8, 16]	MIC [9]	MIC [10]	MIC [11]	IC50 [12]	MIC [1, 17]	MIC [6, 18]	MIC [7, 19]	MIC [8, 20]
CN(CCN1CCN(C(=O)N[C@@H](C(=O)N[C@H]2Cc3ccc(F)c(C(=O)O)c3OB2O)c2cc(F)c(O)c(O)c2Cl)C(=O)C1=O)Cc1cccc(C(N)=O)c1 [Example 225, (R)-3-((R)-2-(4-(2-((3-carbamoylbenzyl)(methyl)amino)ethyl)-2,3-dioxopiperazine-1-carboxamido)-2-(2-chloro-5-fluoro-3,4-dihydroxyphenyl)acetamido)-7-fluoro-2-hydroxy-3,4-dihydro-2H-benzo[e][1,2]oxaborinine-8-carboxylic acid]	> 64 µg/mL	2 to 4 µg/mL (≈ 2.59 to 5.18 µM)	2 to 4 µg/mL (≈ 2.59 to 5.18 µM)	< 1 µg/mL	2 to 4 µg/mL (≈ 2.59 to 5.18 µM)	1 to 2 µg/mL (≈ 1.29 to 2.59 µM)	> 64 µg/mL	16 to 32 µg/mL (≈ 20.7 to 41.4 µM)	< 1 µg/mL	< 1 µg/mL	< 1 µg/mL	< 10 µM				
O=C(CN1CCN(C(=O)NC(C(=O)N[C@H]2Cc3ccc(F)c(C(=O)O)c3OB2O)c2cc(F)c(O)c(O)c2Cl)C(=O)C1=O)Nc1ccccc1 (stereo partly drawn) [Example 232, (3R)-3-(2-(2-chloro-5-fluoro-3,4-dihydroxyphenyl)-2-(2,3-dioxo-4-(2-oxo-2-(phenylamino)ethyl)piperazine-1-carboxamido)acetamido)-7-fluoro-2-hydroxy-3,4-dihydro-2H-benzo[e][1,2]oxaborinine-8-carboxylic acid]	> 64 µg/mL	2 to 4 µg/mL (≈ 2.79 to 5.59 µM)	2 to 4 µg/mL (≈ 2.79 to 5.59 µM)	< 1 µg/mL	8 to 16 µg/mL (≈ 11.2 to 22.4 µM)	1 to 2 µg/mL (≈ 1.4 to 2.79 µM)	> 64 µg/mL	16 to 32 µg/mL (≈ 22.4 to 44.7 µM)	2 to 4 µg/mL (≈ 2.79 to 5.59 µM)	> 128 µg/mL	8 to 16 µg/mL (≈ 11.2 to 22.4 µM)	< 10 µM				
O=C(NCCN1CCN(C(=O)NC(C(=O)N[C@H]2Cc3ccc(F)c(C(=O)O)c3OB2O)c2cc(F)c(O)c(O)c2Cl)C1=O)c1cccnc1 (stereo partly drawn) [Example 246, (3R)-3-(2-(2-chloro-5-fluoro-3,4-dihydroxyphenyl)-2-(3-(2-(nicotinamido)ethyl)-2-oxoimidazolidine-1-carboxamido)acetamido)-7-fluoro-2-hydroxy-3,4-dihydro-2H-benzo[e][1,2]oxaborinine-8-carboxylic acid]		2 to 4 µg/mL (≈ 2.85 to 5.69 µM)	2 to 4 µg/mL (≈ 2.85 to 5.69 µM)	2 to 4 µg/mL (≈ 2.85 to 5.69 µM)	2 to 4 µg/mL (≈ 2.85 to 5.69 µM)				< 1 µg/mL	2 to 4 µg/mL (≈ 2.85 to 5.69 µM)	< 1 µg/mL	< 10 µM	> 64 µg/mL	4 to 8 µg/mL (≈ 5.69 to 11.4 µM)	> 64 µg/mL	16 to 32 µg/mL (≈ 22.8 to 45.5 µM)
O=C(NCCS(=O)(=O)N1CCN(C(=O)NC(C(=O)N[C@H]2Cc3ccc(F)c(C(=O)O)c3OB2O)c2cc(F)c(O)c(O)c2Cl)C1=O)c1cccc(O)c1 (stereo partly drawn) [Example 261, (3R)-3-(2-(2-chloro-5-fluoro-3,4-dihydroxyphenyl)-2-(3-((2-(3-hydroxybenzamido)ethyl)sulfonyl)-2-oxoimidazolidine-1-carboxamido)acetamido)-7-fluoro-2-hydroxy-3,4-dihydro-2H-benzo[e][1,2]oxaborinine-8-carboxylic acid]		2 to 4 µg/mL (≈ 2.56 to 5.12 µM)	2 to 4 µg/mL (≈ 2.56 to 5.12 µM)	2 to 4 µg/mL (≈ 2.56 to 5.12 µM)	2 to 4 µg/mL (≈ 2.56 to 5.12 µM)				2 to 4 µg/mL (≈ 2.56 to 5.12 µM)	2 to 4 µg/mL (≈ 2.56 to 5.12 µM)	< 1 µg/mL	< 10 µM	16 to 32 µg/mL (≈ 20.5 to 40.9 µM)	4 to 8 µg/mL (≈ 5.12 to 10.2 µM)	> 64 µg/mL	16 to 32 µg/mL (≈ 20.5 to 40.9 µM)
O=C(NCCCN1CCN(C(=O)N[C@@H](C(=O)N[C@H]2Cc3ccc(F)c(C(=O)O)c3OB2O)c2cc(F)c(O)c(O)c2Cl)C1=O)c1cccc(O)c1 [Example 255, (R)-3-((R)-2-(2-chloro-5-fluoro-3,4-dihydroxyphenyl)-2-(3-(3-(3-hydroxybenzamido)propyl)-2-oxoimidazolidine-1-carboxamido)acetamido)-7-fluoro-2-hydroxy-3,4-dihydro-2H-benzo[e][1,2]oxaborinine-8-carboxylic acid]		2 to 4 µg/mL (≈ 2.73 to 5.47 µM)	< 1 µg/mL	< 1 µg/mL	< 1 µg/mL				< 1 µg/mL	< 1 µg/mL	< 1 µg/mL	< 10 µM	16 to 32 µg/mL (≈ 21.9 to 43.7 µM)	1 to 2 µg/mL (≈ 1.37 to 2.73 µM)	> 64 µg/mL	4 to 8 µg/mL (≈ 5.47 to 10.9 µM)
O=C(O)c1c(F)ccc2c1OB(O)[C@@H](NC(=O)C(NC(=O)N1CCN(S(=O)(=O)CCCNC(=O)[C@@H]3CCCN3)C1=O)c1cc(F)c(O)c(O)c1Cl)C2 (stereo partly drawn) [Example 275, (3R)-3-(2-(2-chloro-5-fluoro-3,4-dihydroxyphenyl)-2-(2-oxo-3-((3-((S)-pyrrolidine-2-carboxamido)propyl)sulfonyl)imidazolidine-1-carboxamido)acetamido)-7-fluoro-2-hydroxy-3,4-dihydro-2H-benzo[e][1,2]oxaborinine-8-carboxylic acid]		8 to 16 µg/mL (≈ 10.4 to 20.7 µM)	2 to 4 µg/mL (≈ 2.59 to 5.18 µM)	< 1 µg/mL	2 to 4 µg/mL (≈ 2.59 to 5.18 µM)				< 1 µg/mL	< 1 µg/mL	< 1 µg/mL	< 10 µM	16 to 32 µg/mL (≈ 20.7 to 41.4 µM)	4 to 8 µg/mL (≈ 5.18 to 10.4 µM)	> 64 µg/mL	16 to 32 µg/mL (≈ 20.7 to 41.4 µM)
CN(CCN1CCN(C(=O)NC(C(=O)N[C@H]2Cc3ccc(F)c(C(=O)O)c3OB2O)c2cc(F)c(O)c(O)c2Cl)C(=O)C1=O)S(=O)(=O)c1ccc(C(N)=O)cc1 (stereo partly drawn) [Example 223, (3R)-3-(2-(4-(2-((4-carbamoyl-N-methylphenyl)sulfonamido)ethyl)-2,3-dioxopiperazine-1-carboxamido)-2-(2-chloro-5-fluoro-3,4-dihydroxyphenyl)acetamido)-7-fluoro-2-hydroxy-3,4-dihydro-2H-benzo[e][1,2]oxaborinine-8-carboxylic acid]	> 64 µg/mL	2 to 4 µg/mL (≈ 2.43 to 4.86 µM)	2 to 4 µg/mL (≈ 2.43 to 4.86 µM)	2 to 4 µg/mL (≈ 2.43 to 4.86 µM)	8 to 16 µg/mL (≈ 9.72 to 19.4 µM)	4 to 8 µg/mL (≈ 4.86 to 9.72 µM)	> 64 µg/mL	16 to 32 µg/mL (≈ 19.4 to 38.9 µM)	< 1 µg/mL	< 1 µg/mL	< 1 µg/mL	< 10 µM				

— US20240270762A1, “PENICILLIN-BINDING PROTEIN INHIBITORS” (priority 2021, published 2024)
